Assay results: publication PMC10005264, “Computational Design, Synthesis, and Biophysical Evaluation of β-Amido Boronic Acids as SARS-CoV-2 M^pro Inhibitors” (Molecules, 2023)

Assays:
[1] = target: T1, His-tagged recombinant Mpro^CoV-2 (Severe acute respiratory syndrome coronavirus 2, UniProt P0DTD1); experiment: microscale thermophoresis binding check; details: 50 nM labelled protein, PBS-T, 2.5% DMSO, 25 °C, 60-90 min incubation; tested concentration, not a Kd
T1 construct: gene rep
Description: microscale thermophoresis binding check on His-tagged recombinant Mpro^CoV-2

[2] = target: T2, recombinant Mpro^CoV-2 (SARS-CoV-2 M^pro) (Severe acute respiratory syndrome coronavirus 2, UniProt P0DTD1); experiment: FRET peptide cleavage assay (Dabcyl-KTSAVLQSGFRKME-Edans); format: biochemical
T2 construct: gene rep
Description: FRET peptide cleavage assay (Dabcyl-KTSAVLQSGFRKME-Edans) on recombinant Mpro^CoV-2 (SARS-CoV-2 M^pro)

Compound | Ligand Concentration Displaying: / Binding [1] [µM] | inhibition at 20 µM [2] [%]
NC(=O)CCC(=O)N(CC(=O)NCc1ccccc1)[C@H](CB(O)O)c1ccccc1 [3c, (R)-(2-(4-Amino-N-(2-(benzylamino)-2-oxoethyl)-4-oxobutanamido)-2-phenylethyl)boronic Acid] | 4 | –
CC(C)(C)NC(=O)CN(C(=O)CCCC(N)=O)[C@H](CB(O)O)c1ccccc1 [3f, (R)-(2-(5-Amino-N-(2-(tert-butylamino)-2-oxoethyl)-5-oxopentanamido)-2-phenylethyl)boronic Acid] | 1 | –
NC(=O)CCC(=O)N(CC(=O)NC1CCCCC1)[C@H](CB(O)O)c1ccccc1 [3a, (R)-(2-(4-Amino-N-(2-(cyclohexylamino)-2-oxoethyl)-4-oxobutanamido)-2-phenylethyl)boronic Acid] | – | 23.4
NC(=O)CCCC(=O)N(CC(=O)NCc1ccccc1)[C@H](CB(O)O)c1ccccc1 [3ea, (R)-(2-(5-Amino-N-(2-(benzylamino)-2-oxoethyl)-5-oxopentanamido)-2-phenylethyl)boronic Acid] | – | 23.7
NC(=O)CCCC(=O)N(CC(=O)NCc1ccccc1)[C@@H](CB(O)O)c1ccccc1 [3eb, (S)-(2-(5-Amino-N-(2-(benzylamino)-2-oxoethyl)-5-oxopentanamido)-2-phenylethyl)boronic Acid] | 3.1 | –
